Experimental data published in the supplement of paper PMC8671470.

system: MV4-11; assay: cell viability (% survival relative to DMSO control); higher = less cytotoxic; details: drug1 concentration 500 nM; drug2 concentration 5000 nM; 72 h
Description: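 8x8 drug-combination matrices (0–5000 nM; rosiglitazone and lestaurtinib 0–1000 nM) were run in MV4-11 cells for 72 h with CellTiter-Glo read-out. Survival is normalised to DMSO and 10 µM bortezomib and clipped at 100%.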

| SMILES | cell viability |
| --- | --- |
| O=C(C1CC1)N1CC[C@@H](C=C2NNC(=O)N2c2ccc(-c3ccc4occc4c3)cc2)C1 + CS(=O)(=O)N1CCN(Cc2cc3nc(-c4cccc5[nH]ncc45)nc(N4CCOCC4)c3s2)CC1 [Pictilisib] | 69.9% |
| O=C(C1CC1)N1CC[C@@H](C=C2NNC(=O)N2c2ccc(-c3ccc4occc4c3)cc2)C1 + C[C@H](NC(=O)c1sccc1OCc1ccc(Cl)cc1)c1ccccc1 [as1949490] | 62% |
| O=C(C1CC1)N1CC[C@@H](C=C2NNC(=O)N2c2ccc(-c3ccc4occc4c3)cc2)C1 + O=C(c1c2ccccc2cc2ccccc12)N1CCC(N2CCC[C@@H](C(=O)N3CCOCC3)C2)CC1 [CP-640186] | 91.9% |
| CC(C)c1onc(-c2c(Cl)cccc2Cl)c1COc1ccc(/C=C/c2cccc(C(=O)O)c2)c(Cl)c1 [GW4064] + Cn1cc(-c2ccncc2)c(-c2ccc(OCc3ccc4ccccc4n3)cc2)n1 [PF-02545920] | 54.9% |

same assay, conditions: drug1 concentration 1000 nM; drug2 concentration 5 nM; 72 h

| SMILES | cell viability |
| --- | --- |
| O=C(C1CC1)N1CC[C@@H](C=C2NNC(=O)N2c2ccc(-c3ccc4occc4c3)cc2)C1 + CS(=O)(=O)N1CCN(Cc2cc3nc(-c4cccc5[nH]ncc45)nc(N4CCOCC4)c3s2)CC1 [Pictilisib] | 76.8% |
| O=C(C1CC1)N1CC[C@@H](C=C2NNC(=O)N2c2ccc(-c3ccc4occc4c3)cc2)C1 + C[C@H](NC(=O)c1sccc1OCc1ccc(Cl)cc1)c1ccccc1 [as1949490] | 96.5% |
| O=C(C1CC1)N1CC[C@@H](C=C2NNC(=O)N2c2ccc(-c3ccc4occc4c3)cc2)C1 + O=C(c1c2ccccc2cc2ccccc12)N1CCC(N2CCC[C@@H](C(=O)N3CCOCC3)C2)CC1 [CP-640186] | 100% |
| CC(C)c1onc(-c2c(Cl)cccc2Cl)c1COc1ccc(/C=C/c2cccc(C(=O)O)c2)c(Cl)c1 [GW4064] + Cn1cc(-c2ccncc2)c(-c2ccc(OCc3ccc4ccccc4n3)cc2)n1 [PF-02545920] | 90.8% |

same assay, conditions: drug1 concentration 1000 nM; drug2 concentration 10 nM; 72 h

| SMILES | cell viability |
| --- | --- |
| O=C(C1CC1)N1CC[C@@H](C=C2NNC(=O)N2c2ccc(-c3ccc4occc4c3)cc2)C1 + CS(=O)(=O)N1CCN(Cc2cc3nc(-c4cccc5[nH]ncc45)nc(N4CCOCC4)c3s2)CC1 [Pictilisib] | 94.3% |
| O=C(C1CC1)N1CC[C@@H](C=C2NNC(=O)N2c2ccc(-c3ccc4occc4c3)cc2)C1 + C[C@H](NC(=O)c1sccc1OCc1ccc(Cl)cc1)c1ccccc1 [as1949490] | > 100% |
| O=C(C1CC1)N1CC[C@@H](C=C2NNC(=O)N2c2ccc(-c3ccc4occc4c3)cc2)C1 + O=C(c1c2ccccc2cc2ccccc12)N1CCC(N2CCC[C@@H](C(=O)N3CCOCC3)C2)CC1 [CP-640186] | > 100% |
| CC(C)c1onc(-c2c(Cl)cccc2Cl)c1COc1ccc(/C=C/c2cccc(C(=O)O)c2)c(Cl)c1 [GW4064] + Cn1cc(-c2ccncc2)c(-c2ccc(OCc3ccc4ccccc4n3)cc2)n1 [PF-02545920] | > 100% |

same assay, conditions: drug1 concentration 1000 nM; drug2 concentration 50 nM; 72 h

| SMILES | cell viability |
| --- | --- |
| O=C(C1CC1)N1CC[C@@H](C=C2NNC(=O)N2c2ccc(-c3ccc4occc4c3)cc2)C1 + CS(=O)(=O)N1CCN(Cc2cc3nc(-c4cccc5[nH]ncc45)nc(N4CCOCC4)c3s2)CC1 [Pictilisib] | > 100% |
| O=C(C1CC1)N1CC[C@@H](C=C2NNC(=O)N2c2ccc(-c3ccc4occc4c3)cc2)C1 + C[C@H](NC(=O)c1sccc1OCc1ccc(Cl)cc1)c1ccccc1 [as1949490] | > 100% |
| O=C(C1CC1)N1CC[C@@H](C=C2NNC(=O)N2c2ccc(-c3ccc4occc4c3)cc2)C1 + O=C(c1c2ccccc2cc2ccccc12)N1CCC(N2CCC[C@@H](C(=O)N3CCOCC3)C2)CC1 [CP-640186] | > 100% |
| CC(C)c1onc(-c2c(Cl)cccc2Cl)c1COc1ccc(/C=C/c2cccc(C(=O)O)c2)c(Cl)c1 [GW4064] + Cn1cc(-c2ccncc2)c(-c2ccc(OCc3ccc4ccccc4n3)cc2)n1 [PF-02545920] | 53.1% |

same assay, conditions: drug1 concentration 1000 nM; drug2 concentration 100 nM; 72 h

| SMILES | cell viability |
| --- | --- |
| O=C(C1CC1)N1CC[C@@H](C=C2NNC(=O)N2c2ccc(-c3ccc4occc4c3)cc2)C1 + CS(=O)(=O)N1CCN(Cc2cc3nc(-c4cccc5[nH]ncc45)nc(N4CCOCC4)c3s2)CC1 [Pictilisib] | 94.6% |
| O=C(C1CC1)N1CC[C@@H](C=C2NNC(=O)N2c2ccc(-c3ccc4occc4c3)cc2)C1 + C[C@H](NC(=O)c1sccc1OCc1ccc(Cl)cc1)c1ccccc1 [as1949490] | > 100% |
| O=C(C1CC1)N1CC[C@@H](C=C2NNC(=O)N2c2ccc(-c3ccc4occc4c3)cc2)C1 + O=C(c1c2ccccc2cc2ccccc12)N1CCC(N2CCC[C@@H](C(=O)N3CCOCC3)C2)CC1 [CP-640186] | > 100% |
| CC(C)c1onc(-c2c(Cl)cccc2Cl)c1COc1ccc(/C=C/c2cccc(C(=O)O)c2)c(Cl)c1 [GW4064] + Cn1cc(-c2ccncc2)c(-c2ccc(OCc3ccc4ccccc4n3)cc2)n1 [PF-02545920] | > 100% |

same assay, conditions: drug1 concentration 1000 nM; drug2 concentration 500 nM; 72 h

| SMILES | cell viability |
| --- | --- |
| O=C(C1CC1)N1CC[C@@H](C=C2NNC(=O)N2c2ccc(-c3ccc4occc4c3)cc2)C1 + CS(=O)(=O)N1CCN(Cc2cc3nc(-c4cccc5[nH]ncc45)nc(N4CCOCC4)c3s2)CC1 [Pictilisib] | 94.2% |
| O=C(C1CC1)N1CC[C@@H](C=C2NNC(=O)N2c2ccc(-c3ccc4occc4c3)cc2)C1 + C[C@H](NC(=O)c1sccc1OCc1ccc(Cl)cc1)c1ccccc1 [as1949490] | 93.8% |
| O=C(C1CC1)N1CC[C@@H](C=C2NNC(=O)N2c2ccc(-c3ccc4occc4c3)cc2)C1 + O=C(c1c2ccccc2cc2ccccc12)N1CCC(N2CCC[C@@H](C(=O)N3CCOCC3)C2)CC1 [CP-640186] | > 100% |
| CC(C)c1onc(-c2c(Cl)cccc2Cl)c1COc1ccc(/C=C/c2cccc(C(=O)O)c2)c(Cl)c1 [GW4064] + Cn1cc(-c2ccncc2)c(-c2ccc(OCc3ccc4ccccc4n3)cc2)n1 [PF-02545920] | > 100% |

same assay, conditions: drug1 concentration 1000 nM; drug2 concentration 1000 nM; 72 h

| SMILES | cell viability |
| --- | --- |
| O=C(C1CC1)N1CC[C@@H](C=C2NNC(=O)N2c2ccc(-c3ccc4occc4c3)cc2)C1 + CS(=O)(=O)N1CCN(Cc2cc3nc(-c4cccc5[nH]ncc45)nc(N4CCOCC4)c3s2)CC1 [Pictilisib] | > 100% |
| O=C(C1CC1)N1CC[C@@H](C=C2NNC(=O)N2c2ccc(-c3ccc4occc4c3)cc2)C1 + C[C@H](NC(=O)c1sccc1OCc1ccc(Cl)cc1)c1ccccc1 [as1949490] | > 100% |
| O=C(C1CC1)N1CC[C@@H](C=C2NNC(=O)N2c2ccc(-c3ccc4occc4c3)cc2)C1 + O=C(c1c2ccccc2cc2ccccc12)N1CCC(N2CCC[C@@H](C(=O)N3CCOCC3)C2)CC1 [CP-640186] | > 100% |
| CC(C)c1onc(-c2c(Cl)cccc2Cl)c1COc1ccc(/C=C/c2cccc(C(=O)O)c2)c(Cl)c1 [GW4064] + Cn1cc(-c2ccncc2)c(-c2ccc(OCc3ccc4ccccc4n3)cc2)n1 [PF-02545920] | 80.8% |

same assay, conditions: drug1 concentration 1000 nM; drug2 concentration 5000 nM; 72 h

| SMILES | cell viability |
| --- | --- |
| O=C(C1CC1)N1CC[C@@H](C=C2NNC(=O)N2c2ccc(-c3ccc4occc4c3)cc2)C1 + CS(=O)(=O)N1CCN(Cc2cc3nc(-c4cccc5[nH]ncc45)nc(N4CCOCC4)c3s2)CC1 [Pictilisib] | 44.4% |
| O=C(C1CC1)N1CC[C@@H](C=C2NNC(=O)N2c2ccc(-c3ccc4occc4c3)cc2)C1 + C[C@H](NC(=O)c1sccc1OCc1ccc(Cl)cc1)c1ccccc1 [as1949490] | 58.4% |
